This passage reports Ki results from patent US8324250B2 (Hoffmann-La Roche Inc., priority 2009, dated 2012).

The target of the assay is T1, recombinant human NK3 receptor (Homo sapiens, UniProt P29371).
T1 construct: expressed in transfected cells; host or cells: HEK293 cells (transient expression), membranes
T1 sequence (P29371 1-465): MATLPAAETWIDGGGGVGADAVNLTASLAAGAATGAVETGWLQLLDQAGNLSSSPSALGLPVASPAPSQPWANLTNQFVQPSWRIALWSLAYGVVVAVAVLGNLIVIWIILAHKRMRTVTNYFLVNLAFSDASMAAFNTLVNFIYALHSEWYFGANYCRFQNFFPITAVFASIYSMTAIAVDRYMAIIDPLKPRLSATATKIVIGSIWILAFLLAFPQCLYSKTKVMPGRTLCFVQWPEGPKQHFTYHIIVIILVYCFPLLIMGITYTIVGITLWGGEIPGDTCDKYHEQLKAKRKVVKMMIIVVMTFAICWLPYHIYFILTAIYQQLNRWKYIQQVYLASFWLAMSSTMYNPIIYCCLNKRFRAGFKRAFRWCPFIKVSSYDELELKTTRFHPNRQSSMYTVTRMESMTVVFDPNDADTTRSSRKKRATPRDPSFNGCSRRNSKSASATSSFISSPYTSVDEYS
In words: [3H]SR142801 competition binding assay. The conditions noted are these: membranes from HEK293 cells transiently expressing recombinant human NK3 receptor; [3H]SR142801 radioligand; 75 min at RT; Ki by Cheng-Prussoff; read-out: Data Ki (hNK-3 receptor affinity). In short, it runs like this: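 Membranes from HEK293 cells transiently expressing the receptor, 5 μg protein/well, in 50 mM Tris-HCl pH 7.4 with 4 mM MnCl2, 1 μM phosphoramidon, 0.1% BSA; nonspecific binding defined with 10 μM SB222200. Filtration and scintillation counting; IC50 from Hill fit, Ki by Cheng-Prussoff using saturation-derived KD, duplicates.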

As usually defined, the Ki is a dissociation constant, usually derived from enzyme kinetics or from competition with a known ligand. With `O=C(c1ccc(-c2ccc(F)cc2)cc1)N1CCC(C(=O)N[C@@H](c2cccc(F)c2)C2CC2)(c2ccc(F)cc2)CC1` [Example 194, 1-(4′-Fluoro-biphenyl-4-carbonyl)-4-(4-fluoro-phenyl)-piperidine-4-carboxylic acid [(R)-cyclopropyl-(3-fluoro-phenyl)-methyl]-amide], the Ki turned out to be 35 nM.
To `O=C(N1CCN(c2ccc(F)cc2)CC1)N1CCC(C(=O)N[C@H](c2cccc(F)c2)C2CC2)(c2ccc(F)cc2)CC1` [Example 199, 4-(4-Fluoro-phenyl)-1-[4-(4-fluoro-phenyl)-piperazine-1-carbonyl]-piperidine-4-carboxylic acid [(S)-cyclopropyl-(3-fluoro-phenyl)-methyl]-amide] belongs 5.1 nM; to `Cc1noc(C2CCN(C(=O)N3CCC(C(=O)N[C@@H](C)c4ccccc4)(c4ccccc4)CC3)CC2)n1` [Example 214, 1-[4-(3-Methyl-[1,2,4]oxadiazol-5-yl)-piperidine-1-carbonyl]-4-phenyl-piperidine-4-carboxylic acid ((S)-1-phenyl-ethyl)-amide], 9 nM.
Under `C[C@H](NC(=O)C1(c2ccccc2)CCN(C(=O)c2ccc(N3CCCCC3=O)cc2)CC1)c1ccccc1` [Example 63] stands 44.9 nM.
With `Cc1nc(-c2ccc(C(=O)N3CCC(C(=O)N[C@@H](C)c4ccccc4)(c4ccccc4)CC3)cc2)no1` [Example 41, 1-[4-(5-Methyl-[1,2,4]oxa-diazol-3-yl)-benzoyl]-4-phenyl-piperidine-4-carboxylic acid ((S)-1-phenyl-ethyl)-amide], the Ki is 9.4 nM.
To `Cc1nc(-c2ccc(C(=O)N3CCC(C(=O)NC(c4ccc(F)cc4)C(C)C)(c4ccc(F)cc4)CC3)cc2)no1` (centres unmarked) [Example 164, 4-(4-Fluoro-phenyl)-1-[4-(5-methyl-[1,2,4]oxadiazol-3-yl)-benzoyl]-piperidne-4-carboxylic acid [1-(4-fluoro-phenyl)-2-methyl-propyl]-amide] belongs 12 nM; to `Cc1ccc(NNC(=O)C2(c3ccc(F)cc3)CCN(C(=O)c3ccc(-c4ccc(F)cc4)cc3)CC2)cc1` [Example 187, 1-(4′-Fluoro-biphenyl-4-carbonyl)-4-(4-fluoro-phenyl)-piperidine-4-carboxylic acid N′-p-tolyl-hydrazide], 76.7 nM; to `C[C@H](NC(=O)C1(c2ccccc2)CCN(C(=O)c2ccc(-c3ccc(C(F)(F)F)cn3)cc2)CC1)c1ccccc1` [Example 45, 4-Phenyl-1-[4-(5-trifluorome-thyl-pyridin-2-yl)benzoyl]-piperidine-4-carboxylic acid ((S)-1-phenyl-ethyl)-amide], 26.7 nM.
To `C[C@H](NC(=O)C1(c2ccccc2)CCN(C(=O)c2ccc(-c3nnco3)cc2)CC1)c1ccccc1` [Example 35, 1-(4-[l,3,4]Oxadiazol-2-yl-benzoyl)-4-phenyl-piperidine-4-carboxylic acid ((S)-1-phenyl-ethyl)-amide] belongs 68.7 nM.
On to `Cc1noc(-c2ccc(C(=O)N3CCC(C(=O)N[C@H](c4cccc(F)c4)C4CC4)(c4ccc(F)cc4)CC3)cc2)n1` [Example 196, 4-(4-Fluoro-phenyl)-1-[4-(3-methyl-[1,2,4]oxadiazol-5-yl)-benzoyl]-piperidine-4-carboxylic acid [(S)-cyclopropyl-(3-fluoro-phenyl)-methyl]-amide], for which the Ki came to 2.2 nM.
Turning to `C[C@H](NC(=O)C1(c2ccccc2)CCN(C(=O)N2CCN(c3cnccn3)CC2)CC1)c1ccccc1` [Example 209, 4-Phenyl-1-(2,3,5,6-tetrahydro-[1,2′]bipyrazinyl-4-carbonyl)-piperidine-4-carboxylic acid ((S)-1-phenyl-ethyl)-amide], the Ki came out at 58.4 nM.
As for `C[C@H](NC(=O)C1(c2ccccc2)CCN(C(=O)c2ccc(N3CCS(=O)(=O)CC3)cc2)CC1)C1CCCCC1` [Example 80, 1-[4-(1,1 - Dioxo-1λ6-thiomorpholin-4-yl)-benzoyl]-4-phenyl-piperidine-4-carboxylic acid ((S)-1-cyclohexyl-ethyl)-amide], the Ki stood at 4.1 nM.
For `Cc1ccc(-c2nc(C(=O)N3CCC(C(=O)N[C@@H](C)c4ccccc4)(c4ccccc4)CC3)cs2)cc1` [Example 21, 4-Phenyl-1 - (2-p-tolyl-thiazole-4-carbonyl)-piperidine-4-carboxylic acid ((S)-1-phenyl-ethyl)-amide], the Ki came out at 99.8 nM.
Take `C[C@H](NC(=O)C1(c2ccccc2)CCN(C(=O)N2CCC(c3ccccc3)CC2)CC1)c1ccccc1` [Example 204, 4-Phenyl-1-(4-phenyl-piperidine-1-carbonyl)-piperidine-4-carboxylic acid ((S)-1-phenyl-ethyl)-amide]: the Ki came out at 79.2 nM.
Under `Cc1noc(-c2ccc(C(=O)N3CCC(C(=O)N[C@@H](C)c4ccccc4)(c4ccc(F)cc4)CC3)cc2)n1` [Example 81, 4-(4-Fluoro-phenyl)-1-[4-(3-methyl-[1,2,4]oxa-diazol-5-yl)-benzoyl]-piperidine-4-carboxylic acid ((S)-1-phenyl-ethyl)-amide] stands 6 nM; under `CC(C)C(NC(=O)C1(c2ccc(F)cc2)CCN(C(=O)C2CCN(c3ccc(C#N)cn3)CC2)CC1)c1ccc(F)cc1` (centres unmarked) [Example 153, 1-(5′-Cyano-3,4,5,6-tetrahydro-2H-[1,2′]bipyridinyl-4-carbonyl)-4-(4-fluoro-phenyl)-piperidine-4-carboxylic acid [1-(4-fluoro-phenyl)-2-methyl-propyl]-amide], 38 nM; under `Cc1nc(-c2ccc(C(=O)N3CCC(C(=O)N[C@@H](C)c4ccc(F)cc4)(c4ccc(F)cc4)CC3)cc2)no1` [Example 168, 4-(4-Fluoro-phenyl)-1-[4-(5-methyl-[1,2,4]oxadiazol-3-yl)-benzoyl]-piperidine-4-carboxylic acid [(S)-1-(4-fluoro-phenyl)-ethyl]-amide], 36 nM.
For the compound `Cc1nc(-c2ccc(C(=O)N3CCC(C(=O)N[C@H](c4cccc(F)c4)C4CC4)(c4ccc(F)cc4)CC3)cc2)no1` [Example 197, 4-(4-Fluoro-phenyl)-1-[4-(5-methyl-[1,2,4]oxadiazol-3-yl)-benzoyl]-piperidine-4-carboxylic acid [(S)-cyclopropyl-(3-fluoro-phenyl)-methyl]-amide], the inhibition constant Ki is 7.1 nM.
For `C[C@H](NC(=O)C1(c2ccccc2)CCN(C(=O)c2ccc(-c3ccccn3)cc2)CC1)c1ccccc1` [Example 6, 4-Phenyl-1-(4-pyridin-2-yl-benzoyl)-piperidine-4-carboxylic acid ((S)-1-phenyl-ethyl)-amide], the Ki was found to be 40.9 nM.
For `Cc1noc(-c2ccc(C(=O)N3CCC(C(=O)N[C@@H](C)c4ccc(Cl)cc4)(c4ccccc4)CC3)cc2)n1` [Example 104, 1-[4-(3-Methyl-[1,2,4]oxa-diazol-5-yl)-benzoyl]-4-phenyl-piperidine-4-carboxylic acid [(S)-1-(4-chloro-phenyl)-ethyl]-amide], the Ki stood at 11.2 nM.
As for `C[C@H](NC(=O)C1(c2ccc(F)cc2)CCN(C(=O)N2CCN(c3ccc(F)cc3)CC2)CC1)c1cccc(F)c1` [Example 178, 4-(4-Fluoro-phenyl)-1-[4-(4-fluoro-phenyl)-piperazine-1-carbonyl]-piperidine-4-carboxylic acid [(S)-1-(3-fluoro-phenyl)-ethyl]-amide], the Ki came out at 19 nM.
Turning to `Cc1nc(-c2ccc(C(=O)N3CCC(C(=O)NC4(c5ccc(F)cc5)CC4)(c4ccc(F)cc4)CC3)cc2)no1` [Example 163, 4-(4-Fluoro-phenyl)-1-[4-(5-methyl-[1,2,4]oxadiazol-3-yl)-benzoyl]-piperidine-4-carboxylic acid [1-(4-fluoro-phenyl)-cyclopropyl]-amide], the Ki was determined as 41 nM.
With `Cc1noc(-c2ccc(C(=O)N3CCC(C(=O)NC4(c5ccc(F)cc5)CC4)(c4ccc(F)cc4)CC3)cc2)n1` [Example 157, 4-(4-Fluoro-phenyl)-1-[4-(3-methyl-[1,2,4]oxadiazol-5-yl)-benzoyl]-piperidine-4-carboxylic acid [1-(4-fluoro-phenyl)-cyclopropyl]-amide], the Ki amounted to 9.4 nM.
In the case of `Cc1nc(-c2ccc(C(=O)N3CCC(C(=O)N[C@@H](C)C4CCCCC4)(c4ccccc4)CC3)cc2)no1` [Example 75, 1-[4-(5-Methyl-[1,2,4]oxa-diazol-3-yl)-benzoyl]-4-phenyl-piperidine-4-carboxylic acid ((S)-1-cyclohexyl-ethyl)-amide], the Ki amounted to 3.9 nM.
As for `O=C(c1ccc(-c2ccc(F)cc2)cc1)N1CCC(C(=O)N[C@@H](CO)c2ccccc2)(c2ccc(F)cc2)CC1` [Example 140, 1-(4′-Fluoro-biphenyl-4-carbonyl)-4-(4-fluoro-phenyl)-piperidine-4-carboxylic acid ((R)-2-hydroxy-1-phenyl-ethyl)-amide], the Ki came out at 7.8 nM.
As for `C[C@H](NC(=O)C1(c2ccccc2)CCN(C(=O)c2ccc(-c3cncnc3)cc2)CC1)c1ccccc1` [Example 44, 4-Phenyl-1-(4-pyrimidin-5-yl-benzoyl)-piperidine-4-carboxylic acid ((S)-1-phenyl-ethyl)-amide], the Ki is 78.5 nM.
